Measured values published in ChEMBL document CHEMBL1147683, “Synthesis of new and potent analogues of anti-tuberculosis agent 5-nitro-furan-2-carboxylic acid 4-(4-benzyl-piperazin-1-yl)-benzylamide with improved bioavailability” (Bioorg Med Chem Lett, 2006).
In brackets after ≈: the same amount, converted by molar mass.

Legend:
[1] = test system: Mycobacterium tuberculosis; experiment: Antituberculosis activity against Mycobacterium tuberculosis; assay type: functional
[2] = Tmax in mouse at 300 mg/kg, po; assay type: ADME, organism-based; set-up: dose 300 mg/kg, route oral; conditions: in vivo
[3] = (§1) Cmax in mouse serum at 300 mg/kg, po; assay type: ADME, organism-based; set-up: dose 300 mg/kg, route oral; conditions: serum
[4] = Half life in mouse serum at 300 mg/kg, po; assay type: ADME, organism-based; set-up: dose 300 mg/kg, route oral
Mus musculus = experiment: as §1; assay type: ADME, organism-based; set-up: dose 300 mg/kg, route oral; conditions: in vivo

Compound | MIC90 [1] [µg/mL] | Tmax [2] [h] | Cmax [3] [ng/mL] | half-life [4] [h] | Cmax (Mus musculus) [ng/mL]
CCOC(=O)N1CCN(c2ccc(CNC(=O)c3ccc([N+](=O)[O-])o3)cc2)CC1 | 0.0062 (≈ 0.0154 µM) | – | – | – | –
CC(C)COC(=O)N1CCN(c2ccc(CNC(=O)c3ccc([N+](=O)[O-])o3)cc2)CC1 | 0.05 (≈ 0.116 µM) | – | – | – | –
CC(C)NC(=O)N1CCN(c2ccc(CNC(=O)c3ccc([N+](=O)[O-])o3)cc2)CC1 | 0.8 (≈ 1.93 µM) | – | – | – | –
CN1CCN(c2ccc3c(c2)CCN(C(=O)c2ccc([N+](=O)[O-])o2)C3)CC1 | 0.2 (≈ 0.54 µM) | – | – | – | –
CCOC(=O)N1CCN(c2ccc(CNC(=O)c3ccc([N+](=O)[O-])o3)cn2)CC1 | 0.05 (≈ 0.124 µM) | 2.5 | 6560 | 0.7 | –
CC(C)(C)OC(=O)N1CCN(c2ccc(CNC(=O)c3ccc([N+](=O)[O-])o3)cn2)CC1 | 0.05 (≈ 0.116 µM) | 0.5 | 1230 | 2.3 | –
CC(C)(C)OC(=O)N1CCN(c2ccc(CNC(=O)c3ccc([N+](=O)[O-])o3)cc2)CC1 | 0.025 (≈ 0.0581 µM) | – | – | – | –
C=CCOC(=O)N1CCN(c2ccc(CNC(=O)c3ccc([N+](=O)[O-])o3)cc2)CC1 | 0.5 (≈ 1.21 µM) | – | – | – | –
Cl.O=C(c1ccc([N+](=O)[O-])o1)N1CCc2cc(N3CCN(Cc4ccccc4)CC3)ccc2C1 | – | 0.5 | 736 | 3.5 | –
CCOC(=O)N1CCCN(c2ccc(CNC(=O)c3ccc([N+](=O)[O-])o3)cc2)CC1 | 0.1 (≈ 0.24 µM) | – | – | – | –
O=C(NCc1ccc(N2CCN(Cc3ccccc3)CC2)cc1)c1ccc([N+](=O)[O-])o1 | 0.0125 (≈ 0.0297 µM) | – | – | – | –
CCCNC(=O)N1CCN(c2ccc(CNC(=O)c3ccc([N+](=O)[O-])o3)cc2)CC1 | 0.2 (≈ 0.481 µM) | 2.5 | 4800 | 1.5 | –
CC(C)(C)OC(=O)N1CCCN(c2ccc(CNC(=O)c3ccc([N+](=O)[O-])o3)cc2)CC1 | 0.1 (≈ 0.225 µM) | 0.5 | 280 | 7.5 | –
O=C(NCc1ccc(N2CCN(Cc3ccccc3)CC2)nc1)c1ccc([N+](=O)[O-])o1 | 0.0062 (≈ 0.0147 µM) | 0.5 | 1470 | 1.3 | –
CN1CCN(c2ccc3c(c2)CCN(C(=O)c2ccc([N+](=O)[O-])o2)C3)CC1.Cl | – | 0.5 | 280 | 2 | –
CC(C)NC(=O)N1CCN(c2ccc(CNC(=O)c3ccc([N+](=O)[O-])o3)cn2)CC1 | 0.56 (≈ 1.34 µM) | 2.5 | 22000 | 0.5 | –
CCCCOC(=O)N1CCN(c2ccc(CNC(=O)c3ccc([N+](=O)[O-])o3)cc2)CC1 | 0.05 (≈ 0.116 µM) | – | – | – | –
Cl.O=C(NCc1ccc(N2CCN(Cc3ccccc3)CC2)cc1)c1ccc([N+](=O)[O-])o1 | – | – | – | – | 2240
CC(C)NC(=O)N1CCCN(c2ccc(CNC(=O)c3ccc([N+](=O)[O-])o3)cc2)CC1 | 0.8 (≈ 1.86 µM) | 0.5 | 7400 | 2 | –
O=C(c1ccc([N+](=O)[O-])o1)N1CCc2cc(N3CCSCC3)ccc2C1 | 0.4 (≈ 1.07 µM) | – | – | – | –
O=C(NCc1ccc(N2CCCN(Cc3ccccc3)CC2)cc1)c1ccc([N+](=O)[O-])o1 | 0.8 (≈ 1.84 µM) | – | – | – | –
COC(=O)N1CCN(c2ccc(CNC(=O)c3ccc([N+](=O)[O-])o3)cc2)CC1 | 0.1 (≈ 0.257 µM) | – | – | – | –
O=C(c1ccc([N+](=O)[O-])o1)N1CCc2cc(N3CCN(Cc4ccccc4)CC3)ccc2C1 | 0.0062 (≈ 0.0139 µM) | – | – | – | –
